According to PubChem BioAssay AID330 (DTP/NCI, 2004):
Several values for one entry are separate records, joined by “and”; a condition that tells them apart may be missing. Equal values may be shown once. Toxic doses and inconclusive results are not listed.

System: P388 leukemia ip, CD2F1 mice, survival T/C
Test: NCI In Vivo Anticancer Drug Screen. Data for tumor model P388 Leukemia (intraperitoneal) in CD2F1 (CDF1) mice
Conditions: endpoint: median survival time, higher = longer survival
Outline: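 Mice carrying the transplanted tumor received test compound or vehicle. Survival was recorded in each group, and the value is the treated-group measurement divided by that of the vehicle-treated control group.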

[1] = dose: 50.0 mg/kg/injection, schedule: Q01DX009 (ip), vehicle: saline
[2] = dose: 100.0 mg/kg/injection, schedule: Q01DX009 (ip), vehicle: saline
[3] = dose: 200.0 mg/kg/injection, schedule: Q01DX009 (ip), vehicle: saline
[4] = dose: 60.0 mg/kg/injection, schedule: Q01DX005 (ip), vehicle: saline with Tween-80
[5] = dose: 120.0 mg/kg/injection, schedule: Q01DX005 (ip), vehicle: saline with Tween-80
[6] = dose: 240.0 mg/kg/injection, schedule: Q01DX005 (ip), vehicle: saline with Tween-80
[7] = dose: 50.0 mg/kg/injection, schedule: Q01DX001 (ip), vehicle: Klucel (hydroxypropylcellulose) (HPC)
[8] = dose: 100.0 mg/kg/injection, schedule: Q01DX001 (ip), vehicle: Klucel (hydroxypropylcellulose) (HPC)
[9] = dose: 200.0 mg/kg/injection, schedule: Q01DX001 (ip), vehicle: Klucel (hydroxypropylcellulose) (HPC)
[10] = dose: 12.5 mg/kg/injection, schedule: Q01DX009 (ip), vehicle: saline with Tween-80
[11] = dose: 50.0 mg/kg/injection, schedule: Q01DX009 (ip), vehicle: saline with Tween-80
[12] = dose: 100.0 mg/kg/injection, schedule: Q01DX009 (ip), vehicle: saline with Tween-80

With `NC(=Nc1ccccc1)N(c1ccccc1)c1nc(=S)ss1` the T/C (dose: 100.0 mg/kg/injection, schedule: Q04DX002 (ip), vehicle: saline with Tween-80) was 104 % of control, the T/C (dose: 200.0 mg/kg/injection, schedule: Q04DX002 (ip), vehicle: saline with Tween-80) was 93 % of control and the T/C (dose: 400.0 mg/kg/injection, schedule: Q04DX002 (ip), vehicle: saline with Tween-80) was 87 % of control.

With `COc1ccc(CSC(=S)Nc2ccc(N=Nc3ccccc3)cc2)cc1` the T/C [1] was 107 % of control, the T/C [2] was 104 % of control and the T/C [3] was 119 % of control.

With `C=C(C)C(O)C#CCO[Si](c1ccccc1)(c1ccccc1)C(C)(C)C` (stereo unspecified) the T/C [4] was 95 % of control, the T/C [5] was 97 % of control and the T/C [6] was 98 % of control.

With `CC(=O)NC(CNC(C)C)C(=O)O` (stereo unspecified) the T/C [7] was 102 % of control, the T/C [8] was 106 % of control and the T/C [9] was 98 % of control.

With `NC(=S)c1ccc(N=Cc2c(O)ccc3ccccc23)cc1` the T/C [7] was 100 % of control, the T/C [8] was 94 % of control and the T/C [9] was 97 % of control.

With `COc1cc(N)ccc1NC(=O)c1ccccc1` the T/C (dose: 6.25 mg/kg/injection, schedule: Q01DX009 (ip), vehicle: saline with Tween-80) was 109 % of control and the T/C [10] was 100 % of control.

In the case of `CNC(=S)N/N=C(\C)C(C)(C)C`, the T/C (dose: 25.0 mg/kg/injection, schedule: Q04DX003 (ip), vehicle: saline) is reported as 101 % of control, the T/C (dose: 50.0 mg/kg/injection, schedule: Q04DX003 (ip), vehicle: saline) is reported as 101 % of control and the T/C (dose: 100.0 mg/kg/injection, schedule: Q04DX003 (ip), vehicle: saline) is reported as 99 % of control and 104 % of control.

For `CC1=CC2(C)C3C(=O)NC(=O)C3C1C1(C)C3C(=O)NC(=O)C3C21` (stereo unspecified), the T/C (dose: 25.0 mg/kg/injection, schedule: Q01DX009 (ip), vehicle: Klucel (hydroxypropylcellulose) (HPC)) was 103 % of control, the T/C (dose: 50.0 mg/kg/injection, schedule: Q01DX009 (ip), vehicle: Klucel (hydroxypropylcellulose) (HPC)) was 108 % of control and the T/C (dose: 100.0 mg/kg/injection, schedule: Q01DX009 (ip), vehicle: Klucel (hydroxypropylcellulose) (HPC)) was 109 % of control. The T/C (dose: 200.0 mg/kg/injection, schedule: Q01DX009 (ip), vehicle: Klucel (hydroxypropylcellulose) (HPC)) was 97 % of control.

For `CNC(=O)OC1CC2CCCCC2C([N+](C)(C)C)C1` (stereo unspecified), the T/C (dose: 12.5 mg/kg/injection, schedule: Q01DX009 (ip), vehicle: saline) was 105 % of control, the T/C (dose: 25.0 mg/kg/injection, schedule: Q01DX009 (ip), vehicle: saline) was 112 % of control and the T/C [1] was 100 % of control and 106 % of control.

For `C=CCSc1cccc2ccccc12`, the T/C [11] was 100 % of control and the T/C [12] was 109 % of control.

In the case of `O=C(Nc1ccc(Cl)cc1)Nc1nnc(-c2ccc(Cl)cc2Cl)o1`, the T/C [4] is reported as 91 % of control, the T/C [5] is reported as 86 % of control and the T/C [6] is reported as 97 % of control.

With `Cc1cc(N(C)C)nc2cc(N(C)C)ccc12` the T/C [10] was 93 % of control, the T/C (dose: 25.0 mg/kg/injection, schedule: Q01DX009 (ip), vehicle: saline with Tween-80) was 103 % of control and the T/C [11] was 95 % of control and 98 % of control.

In the case of `COC(=O)C12CN(C)CC(C(=O)OC)(C1=O)C(c1ccccn1)N(C)C2c1ccccn1` (stereo unspecified), the T/C [4] is reported as 100 % of control, the T/C [5] is reported as 98 % of control and the T/C [6] is reported as 98 % of control.

`CC1(CN2CCCC2)CCC(NC(=O)C(c2ccccc2)c2ccccc2)C(C)(C)O1` (stereo unspecified) was tested, and the T/C (dose: 25.0 mg/kg/injection, schedule: Q01DX001 (ip), vehicle: saline with Tween-80) was 107 % of control and the T/C (dose: 50.0 mg/kg/injection, schedule: Q01DX001 (ip), vehicle: saline with Tween-80) was 104 % of control.

`CCN(CC)CCOCCO` was tested, and the T/C [1] was 100 % of control, the T/C [2] was 109 % of control and the T/C [3] was 100 % of control.

With `CN(C)C(=O)Oc1ccc(Br)cc1` the T/C [11] was 101 % of control, the T/C [12] was 94 % of control and the T/C (dose: 200.0 mg/kg/injection, schedule: Q01DX009 (ip), vehicle: saline with Tween-80) was 103 % of control.
